Results as given in PubChem BioAssay AID1117351.
Activity calls are given as the source filed them. No rule for the calls is given here.

What follows are compounds tested on HeLa cells, 4N DNA content increase (assay: rise of 4N DNA cells, HeLa – IC50, dose response (AID 1117351)).

Row | SMILES | IC50
1 | Cc1ccc([N+](=O)[O-])[c]2c1[O][Hg]2 | > 10 µM (inactive)
2 | C[n+]1c2cc(N)ccc2cc2ccc(N)cc21 (tested in a mixture with another compound) | > 10 µM (inactive)
3 | CCCCCCCCCCCCCC[N+](C)(C)C | > 10 µM (inactive)
4 | CCCCCCCCCCCC(=O)[O][Sn]([CH2]CCC)([CH2]CCC)[O]C(=O)CCCCCCCCCCC | > 10 µM (inactive)
